Test results taken from patent US20250214962A1, “PYRIDINONE DERIVATIVES AS SELECTIVE CYTOTOXIC AGENTS AGAINST HIV INFECTED CELLS” (Merck Sharp & Dohme LLC, priority 2019, published 2025).

Tests used:
[1] = tested on: infected PBMCs (VSV-G pseudotyped HIV virus); assay: cells; format: cell-based, human; settings: Homo sapiens, PBMC, read-out: SMACK EC50_50% NHS
Viking EC50, 50% NHS = format: cell-based; settings: method not described, read-out: Viking EC50_50% NHS

Question: Which EC50 [1] does the source give for Cc1c(C#N)cc(C(F)F)cc1Oc1c(C(F)(F)C(F)F)ncn(Cc2cc(Br)c[nH]c2=O)c1=O [Example 11, 3-((1-((5-bromo-2-oxo-1,2-dihydropyridin-3-yl)methyl)-6-oxo-4-(1,1,2,2-tetrafluoroethy)-1,6-dihydropyrimidin-5-yl)oxy)-5-(difluoromethyl)-2-methylbenzonitrile] here?
Answer: The EC50 was 402 nM.

Question: For Cc1c(C#N)cc(C(F)F)cc1Oc1c(C(F)(F)C(F)F)ncn(Cc2ccc[nH]c2=O)c1=O [Example 17, 5-(difluoromethyl)-2-methyl-3-((6-oxo-1-((2-oxo-1,2-dihydropyridin-3-yl)methyl)-4-(1,1,2,2-tetrafluoroethyl)-1,6-dihydropyrimidin-5-yl)oxy)benzonitrile], which EC50 [1] is on record?
Answer: The EC50 was 218 nM.

Question: What about the EC50 (Viking EC50, 50% NHS) of the same compound?
Answer: Its EC50 is 17.1 nM.

Question: Which results are given for Cc1c(C#N)cc(C(F)F)cc1Oc1c(C(F)(F)C(F)F)ncn(Cc2ccc(-c3cn[nH]c3)[nH]c2=O)c1=O [Example 27, 5-(difluoromethyl)-3-((1-((2-hydroxy-6-(1H-pyrazol-4-yl)pyridin-3-yl)methyl)-6-oxo-4-(1,1,2,2-tetrafluoroethyl)-1,6-dihydropyrimidin-5-yl)oxy)-2-methylbenzonitrile]?
Answer: EC50 [1]: 292 nM; EC50 (Viking EC50, 50% NHS): 77.2 nM

Question: For Cc1cc(C)c(Cn2cnc(C(F)(F)C(F)F)c(Oc3c(C)cc(C#N)cc3C)c2=O)c(=O)[nH]1 [Example 10, 4-((1-((4,6-dimethyl-2-oxo-1,2-dihydropyridin-3-yl)methyl)-6-oxo-4-(1,1,2,2-tetrafluoroethyl)-1,6-dihydropyrimidin-5-yl)oxy)-3,5-dimethylbenzonitrile], which EC50 [1] is on record?
Answer: The EC50 was 246 nM.

Question: Which EC50 [1] does the source give for CC(F)c1ncn(Cc2ccc(CO)[nH]c2=O)c(=O)c1Oc1cc(Cl)cc(C#N)c1F (single isomer, unassigned) [Example 32, 5-Chloro-2-Fluoro-3-((4-(1-Fluoroethyl)-1-((6-(Hydroxymethyl)-2-Oxo-1,2-Dihydropyridin-3-Yl)Methyl)-6-Oxo-1,6-Dihydropyrimidin-5-Yl)Oxy)Benzonitrile] here?
Answer: The EC50 was 377 nM.

Question: And the EC50 (Viking EC50, 50% NHS)?
Answer: The EC50 was 18.2 nM.

Question: For Cc1c(C#N)cc(C(F)F)cc1Oc1c(C(F)(F)F)ncn(Cc2ccc[nH]c2=O)c1=O [Example 16, 5-(difluoromethyl)-2-methyl-3-((6-oxo-1-((2-oxo-1,2-dihydropyridin-3-yl)methyl)-4-(trifluoromethyl)-1,6-dihydropyrimidin-5-yl)oxy)benzonitrile], which EC50 [1] is on record?
Answer: Its EC50 is 268 nM.

Question: And the EC50 (Viking EC50, 50% NHS)?
Answer: The EC50 was 7.08 nM.

Question: With Cc1c(C#N)cc(Cl)cc1Oc1c(C(C)F)ncn(Cc2ccc(-c3cc[nH]n3)[nH]c2=O)c1=O (stereo not shown) [Example 12, 5-chloro-3-((4-(1-fluoroethyl)-6-oxo-1-((2-oxo-6-(1H-pyrazol-3-yl)-1,2-dihydropyridin-3-yl)methyl)-1,6-dihydropyrimidin-5-yl)oxy)-2-methylbenzonitrile] as the compound, how does the EC50 [1] read?
Answer: The EC50 was 374 nM.

Question: What about the EC50 (Viking EC50, 50% NHS) of the same compound?
Answer: Its EC50 is 127 nM.

Question: Which results are given for Cc1ccc(Cn2cnc(C(F)(F)F)c(Oc3cc(Cl)cc(C#N)c3F)c2=O)c(=O)[nH]1 [Example 4, 5-chloro-2-fluoro-3-((1-((6-methyl-2-oxo-1,2-dihydropyridin-3-yl)methyl)-6-oxo-4-(trifluoromethyl)-1,6-dihydropyrimidin-5-yl)oxy)benzonitrile]?
Answer: EC50 [1]: 197 nM; EC50 (Viking EC50, 50% NHS): 41.1 nM

Question: What does the source list for N#Cc1cc(Cl)cc(Oc2c(C(F)(F)F)ncn(Cc3ccc(-c4cn[nH]c4)[nH]c3=O)c2=O)c1 [Example 30, 3-Chloro-5-((6-Oxo-1-((2-Oxo-6-(1H-Pyrazol-4-Yl)-1,2-Dihydropyridin-3-Yl)Methyl)-4-(Trifluoromethyl)-1,6-Dihydropyrimidin-5-Yl)Oxy)Benzonitrile]?
Answer: EC50 [1]: 415 nM; EC50 (Viking EC50, 50% NHS): 30.1 nM

Question: For CC(O)c1ccc(Cn2cnc(C(F)(F)C(F)F)c(Oc3cc(Cl)cc(C#N)c3F)c2=O)c(=O)[nH]1 (single isomer, unassigned) [Example 34], which EC50 [1] is on record?
Answer: Its EC50 is 270 nM.

Question: What about the EC50 (Viking EC50, 50% NHS) of the same compound?
Answer: Its EC50 is 43.1 nM.

Question: Which EC50 [1] does the source give for N#Cc1cc(Oc2c(C(F)(F)F)ncn(Cc3cc(F)c[nH]c3=O)c2=O)cc(C(F)F)c1 [Example 35] here?
Answer: Its EC50 is 314 nM.

Question: And the EC50 (Viking EC50, 50% NHS)?
Answer: Its EC50 is 15.6 nM.

Question: What does the source list for Cc1ccc(Cn2cnc(C(F)(F)C(F)F)c(Oc3cc(F)cc(C#N)c3C)c2=O)c(=O)[nH]1 [Example 9]?
Answer: EC50 [1]: 281 nM; EC50 (Viking EC50, 50% NHS): 15.7 nM

Question: What does the source list for Cc1c(C#N)cc(C(F)F)cc1Oc1c(C(F)(F)C(F)F)ncn(Cc2ccc(CO)[nH]c2=O)c1=O [Example 25, 5-(Difluoromethyl)-3-((1-((6-(Hydroxymethyl)-2-Oxo-1,2-Dihydropyridin-3-Yl)Methyl)-6-Oxo-4-(1,1,2,2-Tetrafluoroethyl)-1,6-Dihydropyrimidin-5-Yl)Oxy)-2-Methylbenzonitrile]?
Answer: EC50 [1]: 72.7 nM; EC50 (Viking EC50, 50% NHS): 19.6 nM

Question: With N#Cc1cc(Cl)cc(Oc2c(C(F)(F)F)ncn(Cc3cc(F)c[nH]c3=O)c2=O)c1F [Example 37, 5-chloro-2-fluoro-3-((1-((5-fluoro-2-oxo-1,2-dihydropyridin-3-yl)methyl)-6-oxo-4-(trifluoromethyl)-1,6-dihydropyrimidin-5-yl)oxy)benzonitrile] as the compound, how does the EC50 [1] read?
Answer: Its EC50 is 413 nM.

Question: What about the EC50 (Viking EC50, 50% NHS) of the same compound?
Answer: Its EC50 is 32.4 nM.

Question: Which EC50 [1] does the source give for Cc1c(C#N)cc(C(F)F)cc1Oc1c(C(F)(F)C(F)(F)F)ncn(Cc2cc(F)c[nH]c2=O)c1=O [Example 38, 5-(difluoromethyl)-3-((1-((5-fluoro-2-oxo-1,2-dihydropyridin-3-yl)methyl)-6-oxo-4-(perfluoroethyl)-1,6-dihydropyrimidin-5-yl)oxy)-2-methylbenzonitrile] here?
Answer: The EC50 was 191 nM.

Question: What about the EC50 (Viking EC50, 50% NHS) of the same compound?
Answer: Its EC50 is 96.8 nM.

Question: For Cc1ccc(Cn2cnc(C(C)(F)F)c(Oc3cc(Cl)cc(C#N)c3F)c2=O)c(=O)[nH]1 [Example 3, 5-chloro-3-((4-(1,1-difluoroethyl)-1-((6-methyl-2-oxo-1,2-dihydropyridin-3-yl)methyl)-6-oxo-1,6-dihydropyrimidin-5-yl)oxy)-2-fluorobenzonitrile], which EC50 [1] is on record?
Answer: Its EC50 is 87.6 nM.

Question: What about the EC50 (Viking EC50, 50% NHS) of the same compound?
Answer: Its EC50 is 14.1 nM.

Question: With Cc1c(C#N)cc(Cl)cc1Oc1c(C(F)(F)F)ncn(Cc2cc(F)c[nH]c2=O)c1=O [Example 19, 5-chloro-3-((1-((5-fluoro-2-oxo-1,2-dihydropyridin-3-yl)methyl)-6-oxo-4-(trifluoromethyl)-1,6-dihydropyrimidin-5-yl)oxy)-2-methylbenzonitrile] as the compound, how does the EC50 [1] read?
Answer: Its EC50 is 376 nM.

Question: What about the EC50 (Viking EC50, 50% NHS) of the same compound?
Answer: The EC50 was 30.7 nM.

Question: For N#Cc1cc(Cl)cc(Oc2c(C(F)(F)C(F)F)ncn(Cc3ccc[nH]c3=O)c2=O)c1Cl [Example 8, 2,5-dichloro-3-((6-oxo-1-((2-oxo-1,2-dihydropyridin-3-yl)methyl)-4-(1,1,2,2-tetrafluoroethyl)-1,6-dihydropyrimidin-5-yl)oxy)benzonitrile], which EC50 [1] is on record?
Answer: The EC50 was 495 nM.

Question: And the EC50 (Viking EC50, 50% NHS)?
Answer: Its EC50 is 26.9 nM.

Question: For N#Cc1cc(Cl)cc(Oc2c(C(F)(F)C(F)(F)F)ncn(Cc3cc(F)c[nH]c3=O)c2=O)c1F [Example 20, 5-chloro-2-fluoro-3-((1-((5-fluoro-2-oxo-1,2-dihydropyridin-3-yl)methyl)-6-oxo-4-(perfluoroethyl)-1,6-dihydropyrimidin-5-yl)oxy)benzonitrile], which EC50 [1] is on record?
Answer: The EC50 was 99 nM.

Question: And the EC50 (Viking EC50, 50% NHS)?
Answer: The EC50 was 83.7 nM.

Question: Which EC50 [1] does the source give for Cc1c(C#N)cc(C(F)F)cc1Oc1c(C(F)(F)C(F)F)ncn(Cc2ccc(CCCO)[nH]c2=O)c1=O [Example 28, 5-(difluoromethyl)-3-((1-((6-(3-hydroxypropyl)-2-oxo-1,2-dihydropyridin-3-yl)methyl)-6-oxo-4-(1,1,2,2-tetrafluoroethyl)-1,6-dihydropyrimidin-5-yl)oxy)-2-methylbenzonitrile] here?
Answer: The EC50 was 73.8 nM.
